The record followed here is patent US8217042B2, “Pyridopyrazines and their use as modulators of kinases” (Zentaris GmbH, priority 2005, dated 2012).

One series concerns the target T1, Erk2.
T1 construct: in some cases as full-length kinases, in some cases as truncated fragments; purchased Upstate 14-173
Briefly: Cell-free kinase assay (ALPHA technology), Erk2-ALPHA. It is filed as biochemical. The settings on record: 10 μM ATP, recombinant human kinase. Here is the method: (§1) The inhibitory effect of the inventive compounds was tested on various human serine/threonine kinases, tyrosine kinases and lipid kinases in enzymatic assays. Recombinant human kinases, for example Erk2, PI3Kalpha, -beta, -gamma, -delta, p38alpha, p38gamma, Jnk1, Jnk2 and others were used, in some cases as full-length kinases, in some cases as truncated fragments—but at least consisting of the functional kinase domains. The commercial kinase proteins (Proqinase, Upstate) were used as recombinant fusion proteins with GST (glutathione S-transferase) tag or His tag. Depending on the substrate type, the different kinase reactions were quantified by means of suitable ALPHA™ beads (PerkinElmer).
(§2) The substrate testing on the Erk assay is described in detail below. Selected test results of the Erk2, PI3Kalpha assays are cited below. […] The kinase reaction was then stopped by adding 10 μl of the ALPHA bead mix (10 μg/ml, #6760617/PerkinElmer), pre-incubated with anti-phospho MBP antibody (320 μM, #05-429/Upstate), in 25 mM Tris, 200 mM NaCl, 100 mM EDTA and 0.3% BSA, and left to stand overnight. • b) PI3K-ALPHAs (e.g. PI3Kalpha): The test substance, 1 ng of PI3Kalpha (#14-602, Upstate), 100 μM ATP and 20 μM PIP2 substrate (#P4508, Echelon) on a 384-well Optiplate (Perkin Elmer) for 1 h in 50 mM Hepes, 50 mM NaCl, 5 mM MgCl2, 0.05% Chaps, 5 mM DTT at pH 7.4. Subsequently, the kinase reaction was stopped by adding the ALPHA bead mix (10 μg/ml, #6760603/PerkinElmer), preincubated with 1 nM GST:Grp1 fusion protein (Upstate) and 15 nM biotinylated PIP3 (#C-39B6/Echelon) in 50 mM Hepes, 50 mM NaCl, 50 mM EDTA and 0.1% BSA, and left to stand overnight.
(§3) The fluorescence was detected the next morning in a Fusion™ alpha instrument (Perkin Elmer).
(§4) The calculation of % inhibition values per substance concentration was done by means of the following formula from the raw data determined in the Fusion™ alpha:
(§5) The controls were each determined 8 times, the substance samples each twice. 0% control contained neither any ATP nor any substrate; the 100% control contained no test substance. The IC50 values were determined with GraphPadPrism.

A further series has as its target T2, PI3Kalpha (Homo sapiens, UniProt P42336).
T2 construct: in some cases as full-length kinases, in some cases as truncated fragments; purchased Upstate 14-602
Nature of the series: Cell-free kinase assay (ALPHA technology), PI3K-ALPHA. It is filed as biochemical. Conditions: 100 μM ATP, recombinant human kinase. The procedure: as §1, §2, §3, §4, §5

A further series relates to Jnk1 + Jnk2. Nature of the series: Cell-free kinase assay (ALPHA technology), Jnk1 + Jnk2. It is filed as biochemical. The settings on record: at 10 μM or 100 μM* ATP, recombinant human kinases. The procedure: as §1, with “(PerkinElmer). […]” for “(PerkinElmer).”
as §3, §4, §5

The structures appear in SMILES notation. Where a name gives a salt, the structure may show the parent alone.

T1 sequence (P63085 whole entry, the tested form may be a part): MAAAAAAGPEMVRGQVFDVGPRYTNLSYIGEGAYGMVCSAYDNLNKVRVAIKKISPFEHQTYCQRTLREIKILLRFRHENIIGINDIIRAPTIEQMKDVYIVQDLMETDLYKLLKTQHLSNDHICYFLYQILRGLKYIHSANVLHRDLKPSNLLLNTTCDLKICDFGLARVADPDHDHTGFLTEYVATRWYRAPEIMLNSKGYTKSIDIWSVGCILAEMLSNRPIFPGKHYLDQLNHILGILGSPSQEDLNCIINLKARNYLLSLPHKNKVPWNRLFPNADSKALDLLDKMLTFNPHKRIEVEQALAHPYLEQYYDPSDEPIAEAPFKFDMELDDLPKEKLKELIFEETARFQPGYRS
T2 sequence (P42336 whole entry, the tested form may be a part): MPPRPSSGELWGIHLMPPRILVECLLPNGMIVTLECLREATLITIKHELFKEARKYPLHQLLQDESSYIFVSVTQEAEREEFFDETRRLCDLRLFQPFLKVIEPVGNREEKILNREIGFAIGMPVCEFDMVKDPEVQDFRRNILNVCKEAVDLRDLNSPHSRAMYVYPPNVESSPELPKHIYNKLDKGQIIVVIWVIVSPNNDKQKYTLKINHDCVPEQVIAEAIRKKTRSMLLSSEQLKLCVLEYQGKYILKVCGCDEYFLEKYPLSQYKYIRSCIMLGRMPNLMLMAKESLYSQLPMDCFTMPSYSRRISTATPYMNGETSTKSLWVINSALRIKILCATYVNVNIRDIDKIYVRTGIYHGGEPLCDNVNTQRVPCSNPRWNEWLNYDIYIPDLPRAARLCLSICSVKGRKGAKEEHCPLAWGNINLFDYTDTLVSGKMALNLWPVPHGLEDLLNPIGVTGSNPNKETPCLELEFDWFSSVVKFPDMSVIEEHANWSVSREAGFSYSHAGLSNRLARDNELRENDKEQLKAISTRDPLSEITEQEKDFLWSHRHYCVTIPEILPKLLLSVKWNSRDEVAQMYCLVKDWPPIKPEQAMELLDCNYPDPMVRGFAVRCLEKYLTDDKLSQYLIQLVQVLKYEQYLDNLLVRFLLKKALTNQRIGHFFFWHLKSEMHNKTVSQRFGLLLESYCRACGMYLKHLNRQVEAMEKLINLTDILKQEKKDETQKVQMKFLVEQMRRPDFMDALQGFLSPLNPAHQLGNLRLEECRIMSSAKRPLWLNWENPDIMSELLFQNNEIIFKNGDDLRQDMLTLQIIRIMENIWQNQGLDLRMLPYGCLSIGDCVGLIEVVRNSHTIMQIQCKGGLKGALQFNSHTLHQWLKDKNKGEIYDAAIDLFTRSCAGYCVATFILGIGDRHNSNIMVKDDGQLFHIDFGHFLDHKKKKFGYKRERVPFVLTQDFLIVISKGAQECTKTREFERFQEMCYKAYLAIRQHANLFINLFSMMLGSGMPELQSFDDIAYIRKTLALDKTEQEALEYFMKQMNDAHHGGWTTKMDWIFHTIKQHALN
T2 sequence (P27986 whole entry partner, the tested form may be a part): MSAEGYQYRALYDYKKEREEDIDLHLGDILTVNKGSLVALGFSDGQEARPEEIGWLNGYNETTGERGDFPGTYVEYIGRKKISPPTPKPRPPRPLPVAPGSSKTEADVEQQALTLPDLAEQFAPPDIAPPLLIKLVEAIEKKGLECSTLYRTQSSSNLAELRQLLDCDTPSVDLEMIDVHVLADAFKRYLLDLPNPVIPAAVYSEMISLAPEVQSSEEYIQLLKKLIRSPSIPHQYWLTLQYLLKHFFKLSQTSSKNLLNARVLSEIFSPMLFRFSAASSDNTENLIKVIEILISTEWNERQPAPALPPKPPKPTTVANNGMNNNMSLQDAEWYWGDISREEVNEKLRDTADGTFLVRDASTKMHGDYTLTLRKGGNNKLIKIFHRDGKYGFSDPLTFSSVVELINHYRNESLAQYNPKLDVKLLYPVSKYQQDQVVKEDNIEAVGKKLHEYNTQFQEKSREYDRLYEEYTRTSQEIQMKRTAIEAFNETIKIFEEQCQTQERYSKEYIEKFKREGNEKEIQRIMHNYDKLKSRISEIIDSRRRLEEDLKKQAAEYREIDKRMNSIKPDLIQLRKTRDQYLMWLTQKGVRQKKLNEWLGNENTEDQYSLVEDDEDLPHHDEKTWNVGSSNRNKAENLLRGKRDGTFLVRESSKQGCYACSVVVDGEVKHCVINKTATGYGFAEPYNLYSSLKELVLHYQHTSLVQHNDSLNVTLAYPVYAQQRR

With `CCNC(=O)Nc1ccc2ncc(-c3ccc(OC(=O)OCCOC)cc3)nc2n1` [Compound 55, 4-[6-(3-Ethylurea)pyrido[2,3-b]pyrazin-3-yl]phenyl 2-methoxyethyl carbonate hydrochloride], the IC50 on Erk2 was 0.812 µM; on PI3Kalpha (hydrochloride) it was 3.6 µM; in the series on Jnk1 + Jnk2 (hydrochloride), 2.9 µM. On to `CCNC(=O)Nc1ccc2ncc(/C=C/COC)nc2n1` [Compound 6, 1-Ethyl-3-[3-((E)-3-methoxypropenyl)pyrido[2,3-b]pyrazin-6-yl]urea], for which the IC50 on Erk2 was 2.4 µM; at PI3Kalpha it was 21.3 µM. Turning to `CCNC(=O)Nc1ccc2ncc(C#Cc3ccccc3)nc2n1` [Compound 1, 1-Ethyl-3-(3-phenylethynylpyrido[2,3-b]pyrazin-6-yl)urea], the melting point is 236 to 238 °C (dec.). Consider `COc1cc(-c2cnc3ccc(NC(=O)NCCCCP(=O)(O)O)nc3n2)ccc1O` [Compound 45, (4-{3-[3-(4-Hydroxy-3-methoxyphenyl)pyrido[2,3-b]pyrazin-6-yl]urea}butyl)phosphonic acid], for which the half-maximal inhibitory concentration (IC50) at Erk2 was found to be 0.243 µM; on PI3Kalpha, 12.5 µM; with Jnk1 + Jnk2 it was 0.974 µM.

With `CCNC(=O)Nc1ccc2ncc(Nc3ccc(C4CCCCC4)cc3)nc2n1` [Compound 47, 1-[3-(4-Cyclohexylphenylamino)pyrido[2,3-b]pyrazin-6-yl]-3-ethylurea], the melting point lay in the range of 246 to 248 °C. Still for that read-out and setting: in the case of `CCNC(=O)Nc1ccc2ncc(C#CC3CC3)nc2n1` [Compound 3, 1-(3-Cyclopropylethynylpyrido[2,3-b]pyrazin-6-yl)-3-ethylurea] it was 227 to 228 °C (dec.). As to `CCNC(=O)Nc1ccc(-c2cnc3ccc(NC(=O)NCC)nc3n2)cn1` [Compound 25, 1-Ethyl-3-{3-[6-(3-ethylurea)pyridin-3-yl]pyrido[2,3-b]pyrazin-6-yl}urea], the results for the IC50 on Erk2, at PI3Kalpha and with Jnk1 + Jnk2 were 3.4 µM, 4.4 µM and 24.2 µM, respectively. `CCNC(=O)Nc1ccc2ncc(-c3cccc([Si](C)(C)C)c3)nc2n1` registered a melting point of 224 to 228 °C.

Regarding `CCNC(=O)Nc1ccc2ncc(-c3ccc(OC(=O)Oc4ccccc4)cc3)nc2n1` [Compound 11, 4-[6-(3-Ethylurea)pyrido[2,3-b]pyrazin-3-yl]phenyl phenyl carbonate], the IC50 with Jnk1 + Jnk2 is greater than 100 µM.

On to `CCNC(=O)Nc1ccc2ncc(C#Cc3ccsc3)nc2n1` [Compound 2, 1-Ethyl-3-(3-thiophen-3-ylethynylpyrido[2,3-b]pyrazin-6-yl)urea], for which the melting point was 239 to 242 °C (dec.). On to `CCNC(=O)Nc1ccc2ncc(CCc3ccc(F)cc3)nc2n1` [Compound 26, 1-Ethyl-3-{3-[2-(4-fluorophenyl)ethyl]pyrido[2,3-b]pyrazin-6-yl}urea], for which the melting point fell in the range of 207 to 209 °C.

With `CCOP(=O)(CCCCNC(=O)Nc1ccc2ncc(-c3ccc(O)c(OC)c3)nc2n1)OCC` [Compound 44, Diethyl (4-{3-[3-(4-hydroxy-3-methoxyphenyl)pyrido[2,3-b]pyrazin-6-yl]urea}butyl)phosphonate], the IC50 at Erk2 came out at 2.8 µM; on PI3Kalpha, 10.7 µM; in the series with Jnk1 + Jnk2, 8.4 µM. For the compound `CCNC(=O)Nc1ccc2ncc(Nc3ccc(NC(C)=O)cc3)nc2n1` [Compound 53, N-{4-[6-(3-Ethylurea)pyrido[2,3-b]pyrazin-3-ylamino]phenyl}acetamide], the IC50 at Erk2 came out at 16.5 µM; at PI3Kalpha, 0.677 µM; with Jnk1 + Jnk2 it was 20.4 µM.

With `COCCOC(=O)Oc1ccc(-c2cnc3ccc(NC(=O)NCCCCO)nc3n2)cc1` [Compound 58, 4-{6-[3-(4-Hydroxybutyl)urea]pyrido[2,3-b]pyrazin-3-yl}phenyl 2-methoxyethyl carbonate hydrochloride], the IC50 on Erk2 was determined as 0.763 µM; on PI3Kalpha, 4.3 µM; in the series on Jnk1 + Jnk2 it was 2.5 µM.

In turn, `CCNC(=O)Nc1ccc2ncc(/C=C/c3ccc(F)cc3)nc2n1` [Compound 27, 1-Ethyl-3-{3-[(E)-2-(4-fluorophenyl)vinyl]pyrido[2,3-b]pyrazin-6-yl}urea] returned a melting point of 217 to 219 °C.

For orientation: IC50 means the concentration needed to halve the response being measured. As a reminder, the melting point is the temperature of the solid-liquid transition.
